Assay results as given in patent US11992492B2, “Composition for preventing or treating cellular senescence-associated diseases, containing homoharringtonine as active ingredient” (RESEARCH COOPERATION FOUNDATION OF YEUNGNAM UNIVERSITY, priority 2018, dated 2024).

Experiments:
[1] = test system: replicative senescent human fibroblasts; assay: LDH activity analysis (cytotoxicity) in young and replicative senescent human fibroblasts; format: cell-based; conditions: young vs replicative senescent fibroblasts; FIG. 2C
Description: Cytotoxicity against young and senescent cells was investigated with a lactate dehydrogenase (LDH) activity kit (Dojindo Molecular Technologies Inc.). Young cells (1×10^3 cells/100 μl/well) or senescent cells (2×10^3 cells/100 μl/well) were dispensed into a 96-well plate, and then cultured overnight in a 37° C., 5% CO2 incubator. Homoharringtonine, ABT263 and rapamycin were treated at each concentration, and then incubated for 4 days in a 37° C., 5% CO2 incubator. After transferring the cell culture solution to a 1.5 ml tube, it was centrifuged at 4° C. and 12,000 rpm. 100 μl of the supernatant was dispensed into a 96-well plate, and 100 μl of the LDH measurement solution was added to each well, followed by reaction in a CO2 incubator for 30 minutes. 50 μl of the LDH reaction stop solution was added, and absorbance was measured at 490 nm using a microplate reader. The level of LDH activity was expressed as a relative value based on the absorbance of the control group treated with only DMSO.

[2] = test system: human retinal pigmented epithelial cells; assay: CCK-8 analysis and LDH activity analysis in retinal pigmented epithelial cells; format: cell-based; conditions: ARPE young and doxorubicin-senescent; FIG. 6D, 6E
Description: Young cells (1×10^3 cells/well) or senescent cells (2×10^3 cells/well) were dispensed into a 96-well plate, and cultured overnight in a 37° C., 5% CO2 incubator.
Homoharringtonine, ABT263 and rapamycin were treated at each concentration, and then incubated for 4 days in a 37° C., 5% CO2 incubator. 10 μl of CCK-8 reagent (Dojindo Molecular Technologies Inc., Kumamoto, Japan) was added to each well, and incubated for 2 hours in an incubator. Then, the absorbance was measured at 450 nm using a Microplate reader. The degree of cell survival was expressed as a relative value for the absorbance of the control group treated with only DMSO as 100%.
Cytotoxicity against young and senescent cells was investigated with a lactate dehydrogenase (LDH) activity kit (Dojindo Molecular Technologies Inc.). Young cells (1×10^3 cells/100 μl/well) or senescent cells (2×10^3 cells/100 μl/well) were dispensed into a 96-well plate, and then cultured overnight in a 37° C., 5% CO2 incubator.
Homoharringtonine, ABT263 and rapamycin were treated at each concentration, and then incubated for 4 days in a 37° C., 5% CO2 incubator. […] 50 μl of the LDH reaction stop solution was added, and absorbance was measured at 490 nm using a microplate reader. The level of LDH activity was expressed as a relative value based on the absorbance of the control group treated with only DMSO.

COC(=O)C[C@](O)(CCCC(C)(C)O)C(=O)O[C@@H]1C(OC)=C[C@]23CCCN2CCc2cc4c(cc2[C@H]13)OCO4 [homoharringtonine, Homoharringtonine]
LDH activity (cytotoxicity) [1]: increased only in replicative senescent cells compared to young cells | senescent cell-specific cytotoxicity (CCK-8 analysis and LDH activity analysis) [2]: not induced
